In patent US20090275667A1, “USE OF ALLICIN AS PRESERVATIVE, AS DISINFECTANT, AS ANTIMICROBIAL OR AS BIOCIDAL AGENT” (Stone Island Holdings Ltd, priority 2003, published 2009):

Assays:
Paenibacillus alvei = experiment: Inhibition of bacterial growth in broth by Allicin (Study 2); assay type: cell-based; parameters: key: +: Growth present; +^a: weak growth seen, occurred later than lower concentrations; conditions: 34° C.
Experimental: (§1) Allicin liquid (nominal concentration=1000 ppm. ai) was obtained from Allicin International Ltd and kept refrigerated.
(§2) The bacteria tested were Paenibacillus larvae subsp. larvae, Melissococcus plutonium, Brevibacillus laterosporus and Paenibacillus alvei. All isolates were freshly isolated from diseased material sent to the NBU diagnostic laboratory.
(§3) P. larvae subsp. larvae, B. laterosporus and P. alvei were grown on brain heart infusion plus thiamine (BHIT) agar and broth (SOP NBU/014) under aerobic conditions and M. plutonius was grown on SYPG agar and broth (SOP NBU/015) under anaerobic conditions. All experiments were carried out at 34° C. The concentrations of Allicin liquid investigated were 500, 250, 100, 50, 25 and 10 ppm. Broth was made up at twice the usual concentration, so that when the Allicin-containing component was added, the medium was at the correct strength for bacterial growth. Allicin solution was diluted in sterile deionised water to give the desired concentration when added to autoclaved broth. […] Further controls were included, which were the media plus an appropriate volume of Allicin, but not inoculated with bacteria. This would indicate if there were any bacteria present in the test item that may influence the results seen. Both aerobic and anaerobic controls were included.
(§4) Bacteria were isolated from diseased samples and subcultured on agar plates until pure, when they were inoculated into broth cultures. Cultures of M. plutonius were isolated anaerobically, then plated out and incubated both aerobically and anaerobically, to confirm that the isolate investigated was this bacterium. A similar microbe, Enterococcus faecalis, can sometimes be isolated from EFB-infected samples and is morphologically difficult to distinguish from M. plutonius. However, the former bacterium grows very well aerobically, whereas M. plutonius is unable to replicate. Thus, if an isolate is able to grow aerobically, it is not M. plutonius. This control mechanism was used throughout the experimental procedures to ensure that the correct organism was tested.
(§5) Each bacterium was freshly grown in a test tube containing 5 ml broth. A loopful (5 μl) of this bacterial suspension was removed from the culture and inoculated into each test tube according to SOP NBU/131. The same inoculum source for each strain was used for all Allicin dilutions, and all experiments were done in triplicate.
(§6) Where growth occurred in the presence of Allicin, one replicate from each concentration for each bacterium was plated out on the appropriate agar to identify the bacteria that had grown in the broth, to confirm the results (SOP NBU/131). Once growth was evident on this confirmation plate, the culture was assessed with respect to the colony morphology and Gram stained (according to SOP NBU/111) as a further confirmatory test. This is a suitable method as each bacterium tested has distinctive morphology both macro- and microscopically.

Melissococcus plutonius = experiment: as above; assay type: cell-based; parameters: key: +: Growth present; +^a: weak growth seen, occurred later than lower concentrations; conditions: 34° C.
Experimental: as §1, §2, §3, §4, §5, §6

[1] = test system: Brevibacillus laterosporus; experiment: as above; assay type: cell-based; parameters: key: +: Growth present; +^a: weak growth seen, occurred later than lower concentrations; conditions: 34° C.
Experimental: as §1, §2, §3, §4, §5, §6

[2] = test system: Paenibacillus larvae subsp. larvae; experiment: as above; assay type: cell-based; parameters: key: +: Growth present; +^a: weak growth seen, occurred later than lower concentrations; conditions: 34° C.
Experimental: as §1, §2, §3, §4, §5, §6

[3] = test system: E. coli and Salmonella growth; experiment: Preservation of hamburger meat samples against bacterial growth; assay type: cell-based; conditions: for time bacterial overgrowth prevented: 10 kg hamburger meat
Description: A range of concentrations of liquid allicin (0 ppm to 500 ppm) was applied to 10 kg samples of hamburger meat to determine how long bacterial growth could be prevented. These tests were compared to the normal use of existing preservatives (including nitrates and phosphates).
To test for bacterial growth, small samples of meat were cut from the test piece of meat and, using standard methods of analysis, were checked for E. coli and Salmonella growth.

chickens = experiment: In vivo trial of allicin in the drinking water of chickens, two sheds
Experimental: An in vivo trial has also been conducted in which two adjacent sheds each of 10,000 chickens were compared. Each shed was supplied with 1000 litres of water per day. For 7 days, the water for one shed had 1.5 litres of allicin solution (1000 ppm) added to the water supply, with 1 litre of allicin solution (1000 ppm) being added per day for a further 3 days. In the control shed, no allicin solution was added.
After just a few days, an improvement in the appearance of the health of the chickens in the allicin-treated shed was noted. For example, the combs of the chickens appeared redder and there was an increase of 2 percent in egg production. The vitality of the chickens improved. In contrast, in the control barn, E. coli infection was observed. Following completion of the trial, the livers of several of the birds were examined.

E. coli = experiment: Zones of Inhibition against common chicken bacteria; assay type: cell-based; conditions: Escherichia coli

Q: How did the “Growth present at test item concentration” value (“Growth present” below) (Paenibacillus alvei; 10 ppm) turn out when C=CCS[S+]([O-])CC=C (centres unmarked) [allicin, Allicin] was run?
A: Its value is “+”.

Q: What about the “Growth present” value (Paenibacillus alvei; 25 ppm) of the same molecule?
A: The value was “+”.

Q: What about the “Growth present” value (Paenibacillus alvei; 50 ppm) of the same molecule?
A: The value was “+”.

Q: And the “Growth present” value (Paenibacillus alvei; 100 ppm)?
A: Its value is “+^a”.

Q: What about the “Growth present” value (Melissococcus plutonius; 10 ppm) of the same molecule?
A: Its value is “+”.

Q: What about the “Growth present” value (Melissococcus plutonius; 25 ppm) of the same molecule?
A: Its value is “+”.

Q: And the “Growth present” value (Melissococcus plutonius; 50 ppm)?
A: Its value is “+”.

Q: And the “Growth present” value (Melissococcus plutonius; 100 ppm)?
A: Its value is “+^a”.

Q: What about the “Growth present” value ([1]; 10 ppm) of the same molecule?
A: Its value is “+”.

Q: And the “Growth present” value ([1]; 25 ppm)?
A: The value was “+”.

Q: And the “Growth present” value ([1]; 50 ppm)?
A: The value was “+”.

Q: What about the “Growth present” value ([1]; 100 ppm) of the same molecule?
A: The value was “+^a”.

Q: And the “Growth present” value ([2]; 10 ppm)?
A: The value was “+”.

Q: What about the “Growth present” value ([2]; 25 ppm) of the same molecule?
A: The value was “+^a”.

Q: And the “time bacterial overgrowth prevented” value ([3]; 250 ppm)?
A: The value was “up to 7 days”.

Q: What about the “time bacterial overgrowth prevented” value ([3]; 375 ppm) of the same molecule?
A: Its value is “up to 10 days”.

Q: What about the “time bacterial overgrowth prevented” value ([3]; 500 ppm) of the same molecule?
A: The value was “up to 14 days”.

Q: And the “allicin concentration demonstrating prevention of growth of E. coli and Salmonella” value ([3]; meat, equivalent to 0.0250% w/v)?
A: Its value is 250 ppm.

Q: And the “increase in egg production” value (chickens; allicin solution (1000 ppm) 1.5 litres/day in 1000 litres water for 7 days, then 1 litre/day for 3 days, vs control shed)?
A: Its value is 2%.

Q: What about the “resistance to chicken bloodlice” value (chickens; allicin-treated shed vs control shed) of the same molecule?
A: Its value is “improved resistance”.

Q: What about the “evidence of E. coli infection in livers” value (chickens; livers examined after completion of the trial, vs control chickens) of the same molecule?
A: Its value is “did not”.

Q: What about the zone of inhibition at 166 ppm (E. coli; 166 ppm (1:6 dilution)) of the same molecule?
A: Its zone of inhibition at 166 ppm is 0 mm.

Q: What about the zone of inhibition at 1000 ppm (E. coli; 1000 ppm) of the same molecule?
A: The zone of inhibition at 1000 ppm was 17 mm.
